According to article PMC3674182 (European journal of medicinal chemistry, 2013):
≈ marks a conversion by molar mass, not a printed value.

How the values were obtained:
[1] = test system: methicillin-resistant S. aureus (MRSA, ATCC 33591); assay: in vitro antibacterial activity; assay type: cell-based; details: Staphylococcus aureus, ATCC33591|MRSA, read-out: MIC, MRS
[2] = test system: Leishmania donovani axenic amastigotes; assay: in vitro antileishmanial activity, axenic amastigotes; assay type: cell-based; details: 72 h, read-out: L. donovani IC50, Amastigotes
[3] = test system: intracellular amastigote form of Leishmania; details: cited from earlier work

Compound	activity against the intracellular amastigote form of Leishmania [3]	further results
Oc1ccc(C(c2c[nH]c3ccc(I)cc23)c2c[nH]c3ccc(I)cc23)cc1 [8a, 5,5′-Diiodo-3,3′-(4-hydroxyphenyl-methanediyl)-bisindole]		MIC [1]: 2 to 4.3 µM (≈ 1.18 to 2.54 µg/mL)
N=C(N)c1ccc(OCCCCCOc2ccc(C(=N)N)cc2)cc1 [Pentamidine]		IC50 [2]: 2900 nM
N-demethylconodurine	strong activity	
conodurine	strong activity	
